Experimental data published in patent publication US6878700B1, “Cell adhesion-inhibiting antiinflammatory and immune-suppressive compounds” (Abbott Laboratories, priority 1998, dated 2005).
Counter-ions that a name gives are not always drawn.

Assay: Water solubility of the isolated potassium salt
Assay type: physicochemical
Details: solid obtained from the acid with KOH in MeOH (potassium salt)
Method: The compound of Example 137 was hydrolyzed using an excess of aqueous 10% NaOH in methanol, stirring overnight. The reaction mixture was concentrated in vacuo, water was added, and the solution was extracted with ether. The mixture was acidified; the resultant solid was collected by filtration and dried overnight in a vacuum oven, giving a white solid, m.p. 166-171C. ^1H-NMR (DMSO 300 MHz) δ 1.17 (t, J=7 Hz, 3H), broad peaks totaling 9 protons at 1.32-1.48, 1.51-1.78, 1.90-2.04, 2.25-2.50, 2.80-2.90, 2.95-3.17, 3.45-3.51, 3.95-4.19, 4.41-4.51, 4.06 (q, J=7 Hz, 1H), 6.80 (d, J=9 Hz, 1H), 7.01 (t, J=7 Hz, 1H), 7.15 (d, J=8 Hz, 1H), 7.26-7.40 (m, 2H), 7.40-7.48 (m, 1H), 7.51 (dd, J=9 Hz, 2 Hz, 1H), 7.99 (d, J=9 Hz, 1H). Anal. Calcd. for C23H24ClNO4S: C, 61.94; H, 5.42; N, 3.14. Found: C, 61.75; H, 5.65; N, 3.15. The resultant acid (303 mg, 0.631 mmol) was dissolved in 3 mL MeOH. A KOH solution (38 mg, 0.595 mmol, of 87.6% KOH) in 1 ml MeOH was added. The resulting solution was concentrated in vacuo, and 5 mL ether was added. The mixture was stirred for one hour to form a powder, which was filtered and dried in the vacuum oven at 60C to yield 307 mg of a solid, water soluble product. […]

solubility in water	Compound
water soluble	CCOc1ccccc1Sc1ccc(/C=C/C(=O)N2CCCC(C(=O)O)C2)cc1Cl (stereo not shown) [Example 155, (2-Ethoxyphenyl)-[2-chloro-4-(E-[(3-carboxypiperidin-1-yl)carbonyl]ethenyl)phenyl]sulfide]
water-soluble	CCOc1ccccc1Sc1ccc(/C=C/C(=O)N2CCCC(C(=O)O)C2)c(Cl)c1Cl (stereo not shown) [Example 343]

Assay: not given
Details: not given

melting point	Compound
120 °C (dec.)	O=C(O)CN1CCN(C(=O)/C=C/c2ccc(Sc3ccc4c(c3)OCCO4)c([N+](=O)[O-])c2)CC1 (as salt: salt) [Example 221, (Benzodioxan-6-yl)[2-nitro-4-(E-((4-carboxymethylpiperazin-1-yl)carbonyl)ethenyl)phenyl]sulfide]
166 to 171 °C	CCOc1ccccc1Sc1ccc(/C=C/C(=O)N2CCCC(C(=O)O)C2)cc1Cl (stereo not shown) [Example 155, (2-Ethoxyphenyl)-[2-chloro-4-(E-[(3-carboxypiperidin-1-yl)carbonyl]ethenyl)phenyl]sulfide]
170 to 171 °C	CCOc1ccccc1Sc1ccc(/C=C/C(=O)N2CCCCC2C(=O)O)cc1Cl (stereo not shown) [Example 158, (2-Ethoxyphenyl)-[2-chloro-4-(E-[(2-carboxypiperidin-1-yl)carbonyl]ethenyl)phenyl]sulfide]
73 to 75 °C	CCOC(=O)C1CCCN(C(=O)/C=C/c2ccc(Sc3ccc4c(c3)OCCO4)c([N+](=O)[O-])c2)C1 (stereo not shown) [Example 197, (Benzodioxan-6-yl)[2-nitro-4-(E-((3-carboethoxypiperidin-1-yl)carbonyl)ethenyl)phenyl]sulfide]
74 to 75 °C	CCOC(=O)C1CCCCN1C(=O)/C=C/c1ccc(Sc2ccc3c(c2)OCCO3)c([N+](=O)[O-])c1 (stereo not shown) [Example 203, (Benzodioxan-6-yl)[2-nitro-4-(E-((2-carboethoxypiperidin-1-yl)carbonyl)ethenyl)phenyl]sulfide]
165 °C (dec.)	O=C(O)C1CCCCN1C(=O)/C=C/c1ccc(Sc2ccc3c(c2)OCCO3)c([N+](=O)[O-])c1 (stereo not shown) [Example 220, (Benzodioxan-6-yl)[2-nitro-4-(E-((2-carboxypiperidin-1-yl)carbonyl)ethenyl)phenyl]sulfide]
70 to 72 °C	COC(=O)C1CNCCN1C(=O)/C=C/c1ccc(Sc2ccc3c(c2)OCCO3)c(C(F)(F)F)c1 (stereo not shown) [Example 255, (Benzodioxan-6-yl)[2-trifluoromethyl-4-(E-((2-carbomethoxypiperazin-1-yl)carbonyl)ethenyl)phenyl]sulfide]
88 °C (dec.)	O=C(O)C1CCN(C(=O)/C=C/c2ccc(Sc3ccc4c(c3)OCCO4)c(C(F)(F)F)c2)CC1 [Example 263, (Benzodioxan-6-yl)[2-trifluoromethyl-4-(E-((4-carboxypiperidin-1-yl)carbonyl)ethenyl)phenyl]sulfide]
90 °C (dec.)	O=C(O)C1CCCCN1C(=O)/C=C/c1ccc(Sc2ccc3c(c2)OCCO3)c(C(F)(F)F)c1 (stereo not shown) [Example 264, (Benzodioxan-6-yl)[2-trifluoromethyl-4-(E-((2-carboxypiperidin-1-yl)carbonyl)ethenyl)phenyl]sulfide]
56 °C (dec.)	COC(=O)C1CN(C(=O)/C=C/c2ccc(Sc3ccc4c(c3)OCCO4)c(C(F)(F)F)c2)CCN1C(=O)OC (stereo not shown) [Example 269, (Benzodioxan-6-yl)[2-trifluoromethyl-4-(E-((3-carbomethoxy-4-methoxycarbonylpiperazin-1-yl)carbonyl)ethenyl)phenyl]sulfide]
102 °C (dec.)	COC(=O)N1CCN(C(=O)/C=C/c2ccc(Sc3ccc4c(c3)OCCO4)c(C(F)(F)F)c2)C(C(=O)O)C1 (stereo not shown) [Example 271, (Benzodioxan-6-yl)[2-trifluoromethyl-4-(E-((2-carboxy-4-methoxycarbonylpiperazin-1-yl)carbonyl)ethenyl)phenyl]sulfide]
230 to 240 °C (dec.)	Nc1ccccc1Sc1ccc(/C=C/C(=O)N2CCOCC2)c(Cl)c1Cl [Example 410, (2-Aminophenyl)[2,3-dichloro-4-(E-((4-morpholinyl)carbonyl)ethenyl)phenyl]sulfide]

Compound	melting point
CC(C)(C)OC(=O)N1CCN(C(=O)/C=C/c2ccc(Sc3ccc4c(c3)OCCO4)c([N+](=O)[O-])c2)CC1 [Example 205, (Benzodioxan-6-yl)[2-nitro-4-(E-((4-tert-butoxycarbonylpiperazin-1-yl)carbonyl)ethenyl)phenyl]sulfide]	165 to 167 °C
COC(=O)C1CN(C(=O)OC(C)(C)C)CCN1C(=O)/C=C/c1ccc(Sc2ccc3c(c2)OCCO3)c(C(F)(F)F)c1 (stereo not shown) [Example 253, (Benzodioxan-6-yl)[2-trifluoromethyl-4-(E-((2-carbomethoxy-4-tert-butoxycarbonylpiperazin-1-yl)carbonyl)ethenyl)phenyl]sulfide]	85 to 87 °C
